What was measured:
[1] = Mixing with coenzyme Q10, color of the mixture; assay type: physicochemical; conditions: weight ratio 1:1
[2] = test system: Escherichia coli JM109; test: Effect on bacterial growth (viable bacteria count); assay type: cell-based; conditions: 8 mg sample + 100 μL E. coli JM109 solution (turbidity at 660 nm 0.57), 30 minutes room temperature, then 900 μL PBS, LB agar 30° C., colonies
Description: Escherichia coli JM109 was cultivated overnight in an LB medium at 30° C. The cultivated Escherichia coli JM109 was diluted with a phosphate buffer (PBS) having pH of 7.4 manufactured by GIBCO to obtain a solution 1 having turbidity at 660 nm of 0.57. To 8 mg of each sample shown in Table 2, 100 μL of the solution 1 was added at room temperature, and after 30 minutes, 900 μL of PBS was further added to obtain a solution 2. The solution 2 was planted in a petri dish with an LB agar medium and cultivated at 30° C., and a viable bacteria count was determined from the number of colonies in the solution 2.

[3] = High-performance liquid chromatography analysis: return of PQQ alcohol adduct to PQQ; assay type: physicochemical; conditions: 1 mg/ML adduct in phosphate buffer pH 7.4, left at room temperature for 2 hours, HPLC
Description: The high-performance liquid chromatography analysis of the PQQ alcohol adduct or the like was performed as follows.
A column: YMC-Pack ODS-TMS (5 μm) 150×4.6 mm I.D. was arranged in a high-performance liquid chromatography LC-20A manufactured by Shimadzu Corporation, and detection was performed at 260 nm using an eluent of 100 mM CH3COOH/100 mM CH3COONH4 (30/70, pH 5.1) and an absorption detector.
The PQQ methanol adduct obtained in Example 1 was added to a phosphate buffer (manufactured by Invitrogen pH 7.4) to obtain 1 mg/ML of a PQQ methanol adduct solution. After the PQQ methanol adduct solution was left at room temperature for 2 hours, the high-performance liquid chromatography analysis was performed. […] That is, the PQQ methanol adduct obtained in Example 1 returned to the original PQQ free body by the addition of the phosphate buffer and being left at room temperature for 2 hours.

[4] = Stability test in polypropylene container in oven (change of color); assay type: physicochemical
Description: It is to be noted that 100 μL of ODO, Nisshin Oillio was used as an edible fat and oil.

| SMILES | Color of mixture with coenzyme Q10 [1] | Viable bacteria count [2] | PQQ existing in the PQQ methanol adduct solution [3] | Observation result after 7 days ([4]; 30° C., container's cover opened, 5 mg) | Discoloration in the opened state (container's cover opened) ([4]; Table 5) | Stability in the sealed state of the container ([4]; Table 5) |
| --- | --- | --- | --- | --- | --- | --- |
| O=C([O-])c1cc(C(=O)[O-])c2c(n1)C(=O)C(=O)c1cc(C(=O)O)[nH]c1-2.[Na+].[Na+] [PQQ disodium] | Brown |  |  |  |  |  |
| O=C(O)c1cc(C(=O)O)c2c(n1)C(=O)C(=O)c1cc(C(=O)O)[nH]c1-2 [PQQ free body, Pyrroloquinoline quinone] | Brown | 80 |  |  |  |  |
| COC1(O)C(=O)c2cc(C(=O)O)[nH]c2-c2c(C(=O)O)cc(C(=O)O)nc21 (stereo not drawn) [PQQ methanol adduct] | Yellow | 0 | 0.92 mg/mL | Red powder | immediately discolored to red | stable |

From patent publication US9604979B2, “Pyrroloquinoline quinone alcohol adduct” (Mitsubishi Gas Chemical Company, Inc., priority 2011, dated 2017)
